From patent publication US7790896B2, “RNA-selective probes for live cell imaging of nuclear structure and function” (New York University, priority 2006, dated 2010)

Experiments:
[1] = Fluorescent properties of free dye solution; type: physicochemical; settings: for EM (emission λmax), Buffer / EX (excitation λmax), Buffer: TE buffer pH 7.5, dye 5 μM; for ε free (extinction coefficient) / ΦF free (quantum yield): TE buffer pH 7.5, dye 5 μM for E36, 10 μM for E144 and F22; for ΦF free (quantum yield): Rhodamine 6G standard
Description: (§1) The fluorescence spectra data in the primary screening and selected dyes titration assay study was obtained by Gemini XS plate reader. RNA solution was prepared right before the assay experiments to avoid possible degradation and contamination. In the primary screening, 1 mg/mL RNA (type VI from torula yeast) buffer solution was used. Point scans were carried out first using five Ex/Em point sets ([…], 400/500, 450/550, 500/600, 550/650 nm). Spectra scans were then carried out for the selected dyes. Excitation wavelengths were set at 350 nm, 400 nm, 450 nm, 500 nm, and 550 nm and the emission wavelengths were scanned. RNA (16S- and 23S-ribosomal from E. coli) and DNA (salmon testes) titration experiments and quantum yield/extinction coefficient determination for the three best dyes were carried out by the plate reader as well. Excitation λmax obtained from F-2500 Hitachi Fluorophotometer was used. Absorbance wavelength was determined by SpectraMax Plus^384 absorbance plate reader. […] was chosen as standard and 480 nm was used as excitation wavelength in the scanning for quantum yield determination. […] Generally, the λmax (nm) of emission was determined by scanning a fixed excitation first, and the μmax (nm) of excitation was determined by scanning emission spectrum with a fixed μem (nm). The detailed fluorescent properties of three selected dyes including; excitation/emission μmax, the quantum yield and extinction coefficient of both free dye solution and dye-RNA solution were assessed (Table 5).

[2] = system: RNA (16S- and 23S-ribosomal from E. coli); assay: Fluorescent properties of dye-RNA solution; type: binding; settings: for EM (emission λmax), RNA / EX (excitation λmax), RNA: TE buffer pH 7.5, dye 5 μM; for EM (emission λmax), RNA / EX (excitation λmax), RNA / ΦF RNA (quantum yield) / ε RNA (extinction coefficient): RNA 200 μg/mL; for ΦF RNA (quantum yield) / ε RNA (extinction coefficient): TE buffer pH 7.5, dye 5 μM for E36, 10 μM for E144 and F22; for ΦF RNA/ΦF free: ratio of quantum yields with RNA 200 μg/mL and free
Description: as §1

3T3 cells = assay: Cytotoxicity test, MTS assay; type: cell-based
Description: Dye DMSO stock solutions were diluted by fresh medium into four desired concentrations ([…], 13.5 μM, 10 μM and 5 μM). Cells were cultured in 96-well plate for 12 hours before experiments. The cell medium was then exchanged with different concentrations of dye medium solutions. Cells were incubated at 37° C. in 5% CO2 for 5, 15, or 24 hours before viability by MTS assay was measured. As for the MTS assay, briefly, 3-(4,5-dimethylthiazol-2-yl)-5-(3-carboxymethoxyphenyl)-2-(4-sulfophenyl)-2H-tetrazolium (MTS) and phenazine methosulfate (PMS) were mixed at a ratio of 20:1 right before the experiments. The cell dye medium solution was exchanged with 80 μL of fresh medium followed by the addition of 20 μL MTS/PMS solution to each well. 100 μM hydrogen peroxide was used as positive control. The cell plates were then incubated at 37° C. in 5% CO2 for 2 hours. Absorbance was measured at 490 nm. The absorbance measured for an untreated cell population under the same experimental conditions was used as the reference point to establish 100% cell viability. Duplicated experiments have been tested.
(20 μM, 13.5 μM, 10 μM, and 5 μM) in A549 and 3T3 cells and the cytotoxicity was measured using standard MTS assay after 5, 15, or 24 hours incubation (FIG. 5A). Generally, there was no toxicity (defined by greater than 50% cell death) associated with any of the dyes at the working concentration (5 μM) after 24 hours incubation. In A549 cell, all three dyes were non-toxic after 24 hours incubation at all concentrations. In 3T3 cells, E144 was non-toxic, but 20 μM of E36 was toxic after 24 hours incubation and 20 μM F22 was toxic after 15 hours incubation. Since the compounds bind to RNA, it is not surprising to see some signs of toxicity at higher concentrations, especially after one doubling period (approximately 22 hours for A549 cells and 20-25 hours for 3T3 cells). […] Additional studies are required to determine if the compounds perturb nucleolar dynamics throughout the cells cycle.

[3] = system: RNA (16S- and 23S-ribosomal from E. coli) vs. DNA (salmon testes); assay: RNA vs. DNA selectivity titration in solution; type: binding; settings: E36 5 μM, E144 10 μM, F22 10 μM; nucleic acid 0.195 to 200 μg/mL
Description: (§2) Samples containing 50 μg/mL RNA in TE buffer with an increasing concentration of compound from 0.15 μM to 10 μM. Shown here is the intensity increase recorded at the emission λmax wavelength of each dye. […] The samples contain fixed concentration of dyes (E36: 5 μM; E144: 10 μM; F22: 10 μM) in TE buffer with an increasing concentration of RNA or DNA from 0.19 μg/mL to 200 μg/mL. Data points were in duplicated in individual experiments, and error bars represent standard deviation.
(§3) The fluorescence spectra data in the primary screening and selected dyes titration assay study was obtained by Gemini XS plate reader. RNA solution was prepared right before the assay experiments to avoid possible degradation and contamination. In the primary screening, 1 mg/mL RNA (type VI from torula yeast) buffer solution was used. Point scans were carried out first using five Ex/Em point sets ([…], 400/500, 450/550, 500/600, 550/650 nm). Spectra scans were then carried out for the selected dyes. Excitation wavelengths were set at 350 nm, 400 nm, 450 nm, 500 nm, and 550 nm and the emission wavelengths were scanned. RNA (16S- and 23S-ribosomal from E. coli) and DNA (salmon testes) titration experiments and quantum yield/extinction coefficient determination for the three best dyes were carried out by the plate reader as well. Excitation λmax obtained from F-2500 Hitachi Fluorophotometer was used. Absorbance wavelength was determined by SpectraMax Plus^384 absorbance plate reader. […] was chosen as standard and 480 nm was used as excitation wavelength in the scanning for quantum yield determination.
A set of solution assay experiments were then carried out to investigate the dyes' selectivity to bind RNA vs. DNA in vitro. With a fixed concentration of dye (E36 5 μM, E144 10 μM, and F22 10 μM), the fluorescent intensity at various nucleic acid concentrations (0.195 μg/mL to 200 μg/mL) was determined at the appropriate emission λmax wavelength. SYTO®RNASelect (5 μM) and Hoechst 33258 (5 μM) dyes were used as standards for RNA selective and DNA selective dyes (FIG. 3B).

[4] = system: RNA, 16S- and 23S-ribosomal from E. coli; assay: Dye concentration dependency titration with RNA; type: binding; settings: dye 0.15 μM to 10 μM, RNA 50 μg/mL
Description: as §2, §3
The RNA binding characteristics of these dyes was further examined by determining if the fluorescent intensity was concentration dependent (FIG. 3A). […] Moreover, a slight emission Ma red shift was observed (total 8 nm) with the increasing concentration of E36.

Structure (SMILES) | EM (emission λmax), Buffer [1] [nm] | EX (excitation λmax), Buffer [1] [nm] | ε free (extinction coefficient) [1] [M⁻¹ cm⁻¹] | ΦF free (quantum yield) [1] | EM (emission λmax), RNA [2] [nm] | EX (excitation λmax), RNA [2] [nm] | ΦF RNA (quantum yield) [2] | ε RNA (extinction coefficient) [2] [M⁻¹ cm⁻¹] | ΦF RNA/ΦF free [2] | Cytotoxicity (toxic = greater than 50% cell death) (3T3 cells; 20 μM, 24 hours incubation) | Fluorescent intensity response to RNA vs. DNA [3] | Emission λmax red shift with increasing dye concentration [4] | Fluorescent intensity vs dye concentration (titration curve) [4] | Cytotoxicity (toxic = greater than 50% cell death) (3T3 cells; 20, 13.5, 10 and 5 μM, 5, 15 or 24 hours) | Cytotoxicity (toxic = greater than 50% cell death) (3T3 cells; 20 μM, 15 hours incubation)
C[n+]1c(/C=C/c2c[nH]c3ccccc23)ccc2ccccc21 [Dye E36] | 541 | 457 | 39400 | 0.0019 | 548 | 497 | 0.1041 | 43100 | 54.6 | toxic | higher response to RNA than to DNA | 8 nm | evidence of saturation at high concentration |  | 
COc1cc(OC)c(/C=C/c2ccc3ccccc3[n+]2C)c(OC)c1 [Dye E144] | 532 | 440 | 13200 | 0.0056 | 532 | 456 | 0.0310 | 14600 | 5.5 |  | almost same binding affinity to both RNA and DNA | did not show obvious wavelength shift | almost linear curve | non-toxic | 
COc1ccc2c(ccc(/C=C/c3ccc(N(C)C)cc3)[n+]2C)c1 [Dye F22] | 598 | 492 | 17400 | 0.0007 | 620 | 548 | 0.0075 | 20000 | 10.7 |  | higher response to RNA than to DNA | did not show obvious wavelength shift | evidence of saturation at high concentration |  | toxic
